Results: patent US20240122894A1, “METHODS TO SYNTHESIZE FLAVONOID DIMERS AND OLIGOMERS AND THE USE THEREOF” (National University of Singapore, priority 2020, published 2024)

What was measured:
[1] = system: blood glucose; assay: Glycemic response of mice after starch gavage; type: in vivo
Procedure: A 10% (w/v) starch solution was prepared by addition of distilled water to reagent grade corn starch and heating the solution it in a boiling water bath for about 15 minutes until it was completely gelatinized. 8-week-old male wild-type C57BL/6J mice were fasted overnight (free water intake), and weighed the next day. The tail of the mice was trimmed and the blood was taken for measurement of fasting blood glucose concentration with a Roche blood glucose meter. Feeding method a, “YX2+Starch”: Luteolin dimer (2a) was gavaged as a 2 mg/mL water solution, at the dosage level of 20 mg/kg body weight of the animal. Thirty minutes later, the 10% (w/v) starch solution was gavaged at 1 g/kg body weight. Feeding method b, “Starch (+YX2)”: Luteolin dimer (2a) was mixed with starch at 0.2% ratio by dried weight and mixed with water (1:9 by weight) to give a slurry labelled as Starch (+YX2) (FIG. 41). The mixture was gavaged to mice at with 1 g/kg body weight. In comparison, luteolin (1a or YX1) was mixed with starch at 0.2% by weight. The resulting mixture was further mixed with water to give 10% starch slurry labelled as starch (+YX1) (FIG. 41). The mice were gavaged with 1 g/kg body weight. The blood glucose values were measured at 30, 60, 90, 120 minutes to make the blood glucose curve, GraphPad draws the blood glucose response curve after meal, and the area under the curve was calculated.

[2] = system: α-glucosidase; assay: High-throughput starch hydrolase inhibition assay (turbidity, corn starch); type: biochemical
Procedure: (§1) The inhibitory activity of each fraction obtained on α-amylase and α-glucosidase were determined using the turbidity measurement according to a reported method (Liu, Song, Wang, & Huang, 2011, Journal of agricultural and food chemistry 2011 Vol. 59 Issue 18 Pages 9756-9762). Corn starch (20 mg/mL) was suspended in sodium phosphate buffer (0.1 M, pH 6.9) and gelatinized at 100° C. for 2.5 min. The inhibitor solution was diluted in buffer to appropriate concentrations. Acarbose was used as a positive control and a reference standard. α-amylase solution (2 U/mL in buffer, 20 μL) or α-glucosidase solution (1×10−2 U/mL in buffer) was pre-incubated with inhibitor solution (20 μL) with series of concentrations in a 96-well microplate and kept at 37° C. for 15 min. The reaction was initiated by injecting 60 μL of the gelatinized corn starch solution. The turbidity changes were recorded at 660 nm every minute for 2 h using a Synergy HT microplate reader (Biotek Instruments Inc., Winooski, VT, USA). The inhibition percentage was calculated using Equation 10.
(§2) Inhibition (%)=(AUCsample−AUCcontrol)/AUCsample×100% (Equation 10)
(§3) Where AUCsample is the area under the inhibitory curve and AUCcontrol is the area under the curve negative control. The IC50 can be defined as the concentration of an inhibitor that produces 50% inhibition of enzyme activity under a specified assay condition. It was obtained from interpolation of percentage of inhibition against inhibitor concentration curve. In order to avoid run-to-run error due to fluctuation of enzymatic activity, the acarbose equivalent (AE) was used to express the inhibitory activity of sample based on the following equation:
(§4) AE of a sample=IC50 of acarbose/IC50 of a sample (Equation 11)

[3] = target: T1, α-amylase (Sus scrofa, UniProt P00690); assay: as above; type: biochemical
T1 sequence (P00690 16-511): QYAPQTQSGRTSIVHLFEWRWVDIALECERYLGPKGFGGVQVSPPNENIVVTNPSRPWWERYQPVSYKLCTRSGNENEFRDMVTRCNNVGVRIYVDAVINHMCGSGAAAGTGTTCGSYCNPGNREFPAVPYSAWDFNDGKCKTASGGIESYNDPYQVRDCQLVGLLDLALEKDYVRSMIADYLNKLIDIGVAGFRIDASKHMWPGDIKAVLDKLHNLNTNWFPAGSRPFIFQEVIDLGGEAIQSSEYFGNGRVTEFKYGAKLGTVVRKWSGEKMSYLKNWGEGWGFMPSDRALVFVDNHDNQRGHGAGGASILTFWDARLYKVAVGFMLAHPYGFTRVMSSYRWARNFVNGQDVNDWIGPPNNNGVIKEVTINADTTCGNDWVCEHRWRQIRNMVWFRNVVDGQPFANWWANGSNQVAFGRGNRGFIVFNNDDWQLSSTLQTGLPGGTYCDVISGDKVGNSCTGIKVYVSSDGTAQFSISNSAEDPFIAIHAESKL
Procedure: as §1, §2, §3, §4

[4] = system: Aspergillus niger ATCC 16888; assay: Antifungal activity, radial growth technique on PDA medium; type: cell-based; settings: ATCC16888, read-out: IC50, inhibition of the growth of A. niger
Procedure: The antifungal activity was evaluated against two fungi, Aspergillus niger ATCC 16888 and Botrytis cinerea ATCC 11542, isolated and identified with ITS gene (GenBank accession number AY373852, A. S. Taha et al., BioResources 2019, 14, 6025-6046). The bioassay was evaluated using the radial growth technique method (P. Wayne, Reference method for broth dilution antifungal susceptibility testing of yeasts, approved standard. CLSI document M27-A2, 2002). Both fungal strains were cultivated aerobically on PDA medium at 25° C. for 14 days. The fungal spores were collected with sterile cotton swabs and suspended in sterile water, and the concentrations were adjusted according to the requirements of the antifungal assays to be performed.
Flavonoids oligomers were dissolved in DMSO ([…]), then transferred into sterilized warm PDA medium (40 to 45° C.) to achieve a final concentration of 1.0 mg/mL, 0.6 mg/mL and 0.4 mg/mL, before immediately pouring into 24-well sterile plastic microtitration plates containing flat-bottomed wells (Corning Incorporated, costar). […]
From a 7-day-old colony, the fungus with discs of 9 mm diameter was transferred to the center of the treated PDA plates and controls. […] All the tested concentrations, as well as positive and negative controls, were measured in triplicate.

[5] = Determination of pKa values by 13C NMR spectroscopy under argon; type: physicochemical
Procedure: Luteolin (200 mg) was added in the three-necks round bottle flask fitted with a pH meter under argon (FIG. 12). Degassed water (20 mL) was added with stirring. To the solution, degassed aqueous KOH solution was injected through a syringe to adjust the pH. Aliquots (500 μL) of samples at a given pH value were transferred to 5 mm NMR tubes (Armar Chemicals, Switzerland). To the same NMR tube, deuterium oxide (D20, 5.0 μL) was added introduced for deuterium lock and a DMSO-d6 solution encapsulated in capillary tube (FIG. 12) was placed in the tube as the external standard for (at 2.50 ppm for CD3SOCD3, H. E. Gottlieb, V. Kotlyar & A. Nudelman, J. Org. Chem. 1997, 62, 7512-7515). The spectra were recorded and analyzed with MestReNova (Mestrelab research, version 5.2.5-4119). The resulting sigmoidal curve was subjected to nonlinear curve fitting using Prism® (GraphPad, version 5.0b and 5.0f). The dissociation constant pKa was calculated using the Henderson-Hasselback equation (Equation 1-4).
Where LH4, LH3^−, LH2^2−, LH^3− and L^4− are the species of luteolin in fully protonated form, first deprotonated, second deprotonated, third deprotonated 100% deprotonated form.
The chemical shift of the carbons in luteolin is dependent on the relative concentrations of the conjugate pair. For a solution at pH within pKa1 range, and the species in solution is ˜100% protonated (LH4), and the chemical shifts are that of the protonated species, δlow−1. For a solution at a higher pH the species in solution is first deprotonated (LH3^−), and the chemical shifts are that of the deprotonated species, δhigh−1.
Equation 7-8 were applied to determine the mole fraction of conjugate pair from chemical shift of a specific carbon. The assignment of ^13C NMR of luteolin was further confirmed by HSQC and HMBC methods with 2D correlation with ^1H NMR.

[6] = Solubility in water (observation); type: physicochemical; settings: in water or slightly basic aqueous solution
[7] = literature (Electrochim. Acta 2013); cited from earlier work
[8] = 0.2% mixture of compound in starch, gavaged at 1 g/kg body weight

activity in inhibiting α-glucosidase compared with acarbose [2]	activity in inhibiting α-amylase compared with acarbose [3]	IC50 [4]	SMILES	glycemic response ([1]; 20 mg/kg by gavage 30 minutes before starch at 1 g/kg body weight (curve YX2+starch))	glycemic response [1, 8]	glycemic response ([1]; mice fed only with compound at 20 mg/kg body weight, no starch)	pKa3 ([5]; C(3′)-OH)	pKa2 ([5]; C(4′)-OH)	pKa4 ([5]; C(5)-OH)	pKa1 ([5]; C(7)-OH, first deprotonation)	solubility [6]	pKa1, literature values [7]
comparable	comparable	860 nM	O=c1cc(-c2ccc(O)c(O)c2-c2c(O)cc3oc(-c4ccc(O)c(O)c4)cc(=O)c3c2O)oc2cc(O)cc(O)c12 [Compound 2a, 6-(6-(5,7-dihydroxy-4-oxo-4H-chromen-2-yl)-2,3-dihydroxyphenyl)-2-(3,4-dihydroxyphenyl)-5,7-dihydroxy-4H-chromen-4-one]	no glycemic response	comparable to that of the mice fed only with same dose of starch	did not lead to glycemic response						
even higher	even higher		O=c1cc(-c2ccc(O)c(O)c2-c2c(O)cc3oc(-c4ccc(O)cc4)cc(=O)c3c2O)oc2cc(O)cc(O)c12 [Compound 2b, 6-(6-(5,7-dihydroxy-4-oxo-4H-chromen-2-yl)-2,3-dihydroxyphenyl)-5,7-dihydroxy-2-(4-hydroxyphenyl)-4H-chromen-4-one]									
		960 nM	O=c1cc(-c2ccc(O)c(O)c2-c2c(O)cc3oc(-c4ccc(O)c(O)c4-c4c(O)cc5oc(-c6ccc(O)c(O)c6)cc(=O)c5c4O)cc(=O)c3c2O)oc2cc(O)cc(O)c12 [Compound 3a, 6-(6-(5,7-dihydroxy-4-oxo-4H-chromen-2-yl)-2,3-dihydroxyphenyl)-2-(2-(2-(3,4-dihydroxyphenyl)-5,7-dihydroxy-4-oxo-4H-chromen-6-yl)-3,4-dihydroxyphenyl)-5,7-dihydroxy-4H-chromen-4-one]									

SMILES	activity in inhibiting α-glucosidase compared with acarbose [2]	activity in inhibiting α-amylase compared with acarbose [3]	IC50 [4]	glycemic response ([1]; 20 mg/kg by gavage 30 minutes before starch at 1 g/kg body weight (curve YX2+starch))	glycemic response [1, 8]	glycemic response ([1]; mice fed only with compound at 20 mg/kg body weight, no starch)	pKa3 ([5]; C(3′)-OH)	pKa2 ([5]; C(4′)-OH)	pKa4 ([5]; C(5)-OH)	pKa1 ([5]; C(7)-OH, first deprotonation)	solubility [6]	pKa1, literature values [7]
O=c1cc(-c2ccc(O)c(O)c2)oc2cc(O)cc(O)c12 [luteolin]		no activity			almost the same as that of the mice fed only with same dosage of starch		12.78	8.93	13.03	8.00	poor solubility	~6.0
